The numbers were not newly measured in US20050025804A1, “Reduction of adverse inflammation” (priority 2003, published 2005), which cites them from elsewhere.

For the data set the following is noted: peroxynitrite decomposition catalyst.

Regarding `CC(=O)[O-].Cc1c(-c2c3nc(c(-c4c(C)c(S(=O)(=O)[O-])c(C)c(S(=O)(=O)[O-])c4C)c4ccc([n-]4)c(-c4c(C)c(S(=O)(=O)[O-])c(C)c(S(=O)(=O)[O-])c4C)c4nc(c(-c5c(C)c(S(=O)(=O)[O-])c(C)c(S(=O)(=O)[O-])c5C)c5ccc2[n-]5)C=C4)C=C3)c(C)c(S(=O)(=O)[O-])c(C)c1S(=O)(=O)[O-].[Fe+3].[Na+].[Na+].[Na+].[Na+].[Na+].[Na+].[Na+].[Na+]` [Fe(III)TMPS, acetato-5,10,15,20-tetrakis(3,5-disulfonatomesityl) porphyrin iron (III) octasodium salt], the rate constant was 2.06e+06 M⁻¹ s⁻¹.

Take “acetato (5,10,15,20-tetrakis(N-methyl-4-pyridyl)porphinato) iron (III) tetratosylate [Fe(III)TMPyP]”: the rate constant was 2.75e+06 M⁻¹ s⁻¹.
